In publication PMC11952846, “The sterol-regulating human ARV1 binds cholesterol and phospholipids through its conserved ARV1 homology domain” (The Journal of Biological Chemistry, 2025) one finds liposome binding and EC50 data, which are given here for five molecules.

One assay concerns the target T1, GST-ARV1-N98 K67A (Homo sapiens, UniProt Q9H2C2, K67A).
T1 construct: Expresses amino-terminal 98 amino acids of ARV1; made in house; host or cells: E. coli BL21 (pGEX-4T1)
T1 sequence (Q9H2C2 1-98 K67A): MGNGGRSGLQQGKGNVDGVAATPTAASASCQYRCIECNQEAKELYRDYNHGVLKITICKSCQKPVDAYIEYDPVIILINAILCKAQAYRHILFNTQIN
Put plainly: Liposome binding assay, site-directed mutant. To be noted: PC:PL, sulfatide liposomes. On the procedure: (§1) Lyophilized lipids were reconstituted in chloroform at 10 mg/ml and stored in glass tubes with Teflon tops at −20 °C until use. One milliliter of 10 mg/ml stock was dried under a stream of nitrogen in a glass tube until a lipid cake/film was formed. The lipid cake was then rehydrated in BLT rehydration buffer (5 mM Tris/HCl, pH 7.4, containing 150 mM NaCl) to a concentration of 1 mg/ml. Lipid suspensions were subjected to three freeze/thaw cycles using a dry ice ethanol/[…] water bath to encapsulate the buffer and improve liposome formation. The suspension and lipid extruder were equilibrated to temperature for 10 min and liposomes were extruded using […] polycarbonate membranes (Avestin). Liposomes were made by mixing stock lipid PL (1 mg/ml) with PC (10 mg/ml).
(§2) Sulfatide liposomes were generated as previously described ([94]). All lipids were resuspended in organic solvents as per manufacturer’s instructions. Liposomes were prepared with mixing PC:PE:cholesterol:sulfatides (1:1:1:4) and subsequently dried down by lyophilization to obtain lipid films. Lipids were hydrated in 20 mM Tris–HCL, pH 6.8, containing 100 mM NaCl at a concentration of 1 mg/ml.
(§3) PI(4)P liposomes were generated as described by Knodler et al. ([95]), with some modifications. Briefly, liposomes were generated at a lipid concentration of 10 mg/ml. Liposomes contained PC (60%), PI (30%), PE (8%), and PI(4)P (2%). Lipid solution was dried down and resuspended in liposome buffer (20 mM Hepes–HCL, pH 7.4, containing 1 mM EDTA and 50 mM potassium acetate). Liposomes were formed by sonication on ice.
(§4) Liposomes were serial diluted in floatation buffer (100 mM NaCl, 2 mM EDTA, pH 5.5) to a final concentration of 0.1 mg/ml. Nine hundred microliters of liposome solution was placed in clear ultracentrifuge tubes and mixed with 100 μl of 0.01 μg/ml of protein. The liposome/protein solution was incubated at room temperature for 1 h with occasional shaking. An initial 100 μl of liposome/protein solution (liposomes) was removed and the remaining 900 μl was centrifuged at 50,000g for 20 min at 4 °C. The pellet was resuspended in 800 μl of fresh floatation buffer, centrifuged as above, and 800 μl of supernatant was removed (wash 1). This was repeated a second time and again 800 μl of supernatant was removed (wash 2). The final pellet was resuspended in 100 μl of floatation buffer plus SDS treatment buffer (pellet). Thirty microliters of each fraction was run on a 15% SDS-PAGE gel and probed with an anti-GST monoclonal antibody at a 1:1500 dilution.

A further assay concerns the target T2, GST-ARV1-N98 N94A (Homo sapiens, UniProt Q9H2C2, N94A).
T2 construct: Expresses amino-terminal 98 amino acids of ARV1; made in house; host or cells: E. coli BL21 (pGEX-4T1)
T2 sequence (Q9H2C2 1-98 N94A): T1 sequence (Q9H2C2 1-98 K67A) with A67K, N94A
In words: Liposome binding assay, site-directed mutant. The conditions noted are these: PC:PL, sulfatide or PI(4)P liposomes. On the procedure: as §1, §2, §3, §4

The target in another assay is T3, 6XHIS-ARV1-N98 (Homo sapiens, UniProt Q9H2C2).
T3 construct: made in house; host or cells: E. coli BL21
T3 sequence (Q9H2C2 1-98): T1 sequence (Q9H2C2 1-98 K67A) with A67K
In words: HTRF phospholipid lipid-binding assay. The conditions noted are these: biotinylated lipid (Bio-PL) titrated, 0.75 μM protein; lipid labels mean the biotinylated lipids. An excerpt: An HTRF assay was developed for 6XHIS-ARV1-N98-lipid binding. HTRF measures analyte interactions through fluorescence resonance energy transfer technology and time-resolved measurements ([53]). The interaction between two molecules can be quantified through binding each individual molecule involved with a fluorescent label and then analyzing the transfer of energy between the initial donor fluorophore and the secondary acceptor fluorophore. Following excitation of the first fluorophore, transfer of energy can only occur if the molecules bound with the fluorescent tags are within proximity to each other.
Assays were plated in 384-well flat bottom microplates (Greiner Bio, catalog #784075-25). Proteins were diluted using binding buffer (20 mM Hepes buffer, pH 7.2, containing 0.1% BSA, and 0.01% Tween20) to a stock concentration of 0.75 μM, and biotinylated phospholipids were dispensed, dried under nitrogen gas, and resuspended in binding buffer to a stock concentration of 50 μM. The lipid stock solution was diluted by 1:2 for a series of 12 serial dilutions. For the assay, in sequential order, 6 μl of binding buffer was loaded into the plate in triplicate for each dilution of phospholipid. To this, 2 μl of 0.75 μM 6XHIS-ARV1-N98 was added, followed by 2 μl of biotinylated phospholipid. Immediately following each addition loaded into the plate, the plate was centrifuged for 1 min at 1000 rpm to bring the contents to the bottom of the well. Next, detection antibodies were mixed with detection buffer (20 mM Hepes buffer, pH 8.5, containing 0.01% BSA and 200 mM KF). […] Plates were read on a PerkinElmer EnVision Xcite Multilabel plate reader.
Curves were logarithmically transformed and normalized to a common scale before being fit with a nonlinear regression of the agonist against the normalized response. […] For phospholipid competition analysis, IC50; M values were determined using nonlinear regression of the inhibitor against normalized response.
(TR-FRET usually uses a lanthanide donor and a delayed reading to cut background.)

The target in a further assay is T4, GST-ARV1-N98 K84A (Homo sapiens, UniProt Q9H2C2, K84A).
T4 construct: Expresses amino-terminal 98 amino acids of ARV1; made in house; host or cells: E. coli BL21 (pGEX-4T1)
T4 sequence (Q9H2C2 1-98 K84A): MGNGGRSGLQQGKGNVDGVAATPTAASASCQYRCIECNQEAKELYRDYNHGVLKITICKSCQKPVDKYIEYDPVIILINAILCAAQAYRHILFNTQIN
In words: Liposome binding assay, site-directed mutant. The conditions noted are these: PE liposomes. On the procedure: as §1, §2, §3, §4

A further assay concerns the target T5, GST-ARV1-N98 E70A (Homo sapiens, UniProt Q9H2C2, E70A).
T5 construct: Expresses amino-terminal 98 amino acids of ARV1; made in house; host or cells: E. coli BL21 (pGEX-4T1)
In words: Liposome binding assay, site-directed mutant. To be noted: PE liposomes. Here is the method:
as §1, §2, §3, §4

A further assay concerns the target T6, GST-ARV1-N98 C58/C61A (Homo sapiens, UniProt Q9H2C2, C58A/C61A).
T6 construct: Expresses amino-terminal 98 amino acids of ARV1; made in house; host or cells: E. coli BL21 (pGEX-4T1)
T6 sequence (Q9H2C2 1-98 C58A/C61A): T1 sequence (Q9H2C2 1-98 K67A) with C58A, C61A, A67K
In words: Liposome binding assay, site-directed mutant. To be noted: PC:PL, sulfatide or PI(4)P liposomes. On the procedure: as §1, §2, §3, §4

Substitutions are numbered along the chain they refer to.

T5 sequence (Q9H2C2 1-98 E70A): as the sequence (Q9H2C2 1-98 K84A) above, with E70A, A84K counted along it

Consider `CCCCCCCC/C=C\CCCCCCCC(=O)OC[C@H](COP(=O)(O)OCC(O)CO)OC(=O)CCCCCCC/C=C\CCCCCCCC` (stereo partly shown) [PG, phosphatidylglycerol], for which the liposome binding entry on GST-ARV1-N98 K67A is “unable to bind”; at GST-ARV1-N98 N94A, “very weak”.
For phosphatidylethanolamine [PE], a half-maximal effect at 6XHIS-ARV1-N98 (EC50) was put at 5.3 µM. The liposome binding entry at GST-ARV1-N98 K84A, on GST-ARV1-N98 E70A and on GST-ARV1-N98 K67A was “showed binding” throughout.
With phosphatidylcholine [PC], on 6XHIS-ARV1-N98, a half-maximal effect (EC50) was put at 1.1 µM.
`CCCCCCCCCCCCCCCC(=O)OC[C@H](COP(=O)(O)O)OC(=O)CCCCCCCCCCCCCCC` [PA, phosphatidic acid]: on GST-ARV1-N98 C58/C61A, the liposome binding result is reported as “did not bind”.
Consider `CCCCCC(=O)O[C@H](COC(=O)CCCCCNC(=O)CCCC[C@@H]1SC[C@@H]2NC(=O)N[C@@H]21)COP(=O)(O)O[C@H]1[C@H](O)[C@@H](O)[C@H](OP(=O)(O)O)[C@@H](O)[C@H]1O` [reference compound], for which the liposome binding entry is on record as “did not bind” on GST-ARV1-N98 C58/C61A and “lost the ability to bind” on GST-ARV1-N98 N94A.
